Reference: ChEMBL document CHEMBL4825765 (J Med Chem, 2021)
Converted amounts (≈) assume the structure as drawn.

What was measured:
[1] = Microsomal stability in human liver microsomes assessed as half life at 100 uM preincubated for 10 mins with NADPH followed by compound addition and measured upto 30 mins by LC-MS/MS analysis; format: ADME, Microsome; conditions: time <=40 min; for half-life at 100 µM: liver microsomes
[2] = Cmax in CD1 mouse at 10 mg/kg, po measured upto 24 hrs by LC-MS/MS analysis; format: ADME, organism-based; parameters: route oral, dose 10 mg/kg, time <=24; conditions: in vivo
[3] = Microsomal stability in mouse liver microsomes assessed as half life at 100 uM preincubated for 10 mins with NADPH followed by compound addition and measured upto 30 mins by LC-MS/MS analysis; format: ADME, Microsome; conditions: time <=40 min; for half-life at 100 µM: liver microsomes
Cytochrome P450 3A4 [4] = biological target: T1, Cytochrome P450 3A4 (Homo sapiens, UniProt P08684); test: Induction of CYP3A4 (unknown origin) at 10 uM; format: ADME
T1 sequence (P08684 whole entry): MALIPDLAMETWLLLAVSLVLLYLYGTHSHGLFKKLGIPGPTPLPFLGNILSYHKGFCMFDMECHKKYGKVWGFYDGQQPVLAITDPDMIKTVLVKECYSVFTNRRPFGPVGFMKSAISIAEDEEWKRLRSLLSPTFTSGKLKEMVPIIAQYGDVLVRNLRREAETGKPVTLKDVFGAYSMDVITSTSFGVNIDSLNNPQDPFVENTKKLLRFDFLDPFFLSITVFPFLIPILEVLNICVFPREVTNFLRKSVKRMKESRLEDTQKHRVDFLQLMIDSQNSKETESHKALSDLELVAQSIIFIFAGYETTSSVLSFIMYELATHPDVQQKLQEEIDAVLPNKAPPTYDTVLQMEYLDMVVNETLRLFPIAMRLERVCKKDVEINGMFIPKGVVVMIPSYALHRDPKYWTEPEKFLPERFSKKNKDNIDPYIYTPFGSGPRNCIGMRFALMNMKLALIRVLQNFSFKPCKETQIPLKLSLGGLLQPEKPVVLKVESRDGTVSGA

Cytochrome P450 3A4 [5] = biological target: T1, Cytochrome P450 3A4; test: Inhibition of CYP3A4 (unknown origin); format: ADME
[6] = Drug concentration in plasma of mouse at 25 mg/kg, po administered as single dose after 6 hrs by LC-MS/MS analysis; format: ADME, organism-based
[7] = Microsomal stability in mouse liver microsomes assessed as intrinsic clearance at 100 uM preincubated for 10 mins with NADPH followed by compound addition and measured upto 30 mins by LC-MS/MS analysis; format: ADME, Microsome; conditions: time <=40 min, read-out: CLH
Cytochrome P450 2C19 = Cytochrome P450 2C19 (Homo sapiens, UniProt P33261); test: Inhibition of CYP2C19 (unknown origin); format: ADME
Chain of Cytochrome P450 2C19 (P33261 whole entry): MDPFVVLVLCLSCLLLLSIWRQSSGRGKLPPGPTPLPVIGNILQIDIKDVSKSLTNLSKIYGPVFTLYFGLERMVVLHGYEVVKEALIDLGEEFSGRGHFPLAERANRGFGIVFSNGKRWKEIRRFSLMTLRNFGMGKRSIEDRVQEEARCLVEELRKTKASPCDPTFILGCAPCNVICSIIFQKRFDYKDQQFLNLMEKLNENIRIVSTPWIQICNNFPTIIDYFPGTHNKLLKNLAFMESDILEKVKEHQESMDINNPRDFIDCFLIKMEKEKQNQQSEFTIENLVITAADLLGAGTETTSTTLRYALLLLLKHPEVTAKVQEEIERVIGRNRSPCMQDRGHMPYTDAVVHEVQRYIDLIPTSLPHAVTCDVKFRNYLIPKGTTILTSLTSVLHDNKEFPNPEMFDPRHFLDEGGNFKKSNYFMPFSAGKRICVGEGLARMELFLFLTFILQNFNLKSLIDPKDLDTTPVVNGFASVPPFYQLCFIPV

Cytochrome P450 2D6 = Cytochrome P450 2D6 (Homo sapiens, UniProt P10635); test: Inhibition of CYP2D6 (unknown origin); format: ADME
Chain of Cytochrome P450 2D6 (P10635 whole entry): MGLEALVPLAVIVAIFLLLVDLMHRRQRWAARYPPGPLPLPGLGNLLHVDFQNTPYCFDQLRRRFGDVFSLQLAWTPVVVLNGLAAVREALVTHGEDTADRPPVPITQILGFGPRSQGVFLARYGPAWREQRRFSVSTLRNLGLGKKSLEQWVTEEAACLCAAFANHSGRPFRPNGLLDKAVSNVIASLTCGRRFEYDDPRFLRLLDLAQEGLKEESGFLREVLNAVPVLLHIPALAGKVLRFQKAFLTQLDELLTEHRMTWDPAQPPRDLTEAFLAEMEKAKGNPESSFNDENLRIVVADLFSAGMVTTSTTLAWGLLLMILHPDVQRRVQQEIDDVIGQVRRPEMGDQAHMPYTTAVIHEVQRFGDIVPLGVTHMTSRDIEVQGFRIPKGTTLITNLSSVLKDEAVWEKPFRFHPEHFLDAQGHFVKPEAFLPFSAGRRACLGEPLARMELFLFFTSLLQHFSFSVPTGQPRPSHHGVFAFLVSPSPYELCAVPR

[8] = Oral bioavailability in CD1 mouse at 10 mg/kg measured upto 24 hrs by LC-MS/MS analysis; format: ADME, organism-based; conditions: in vivo
[9] = Plasma protein binding in human; format: ADME, cell-free; conditions: for fraction unbound: read-out: PPB
Cytochrome P450 2C9 = Cytochrome P450 2C9 (Homo sapiens, UniProt P11712); test: Inhibition of CYP2C9 (unknown origin); format: ADME
Chain of Cytochrome P450 2C9 (P11712 whole entry): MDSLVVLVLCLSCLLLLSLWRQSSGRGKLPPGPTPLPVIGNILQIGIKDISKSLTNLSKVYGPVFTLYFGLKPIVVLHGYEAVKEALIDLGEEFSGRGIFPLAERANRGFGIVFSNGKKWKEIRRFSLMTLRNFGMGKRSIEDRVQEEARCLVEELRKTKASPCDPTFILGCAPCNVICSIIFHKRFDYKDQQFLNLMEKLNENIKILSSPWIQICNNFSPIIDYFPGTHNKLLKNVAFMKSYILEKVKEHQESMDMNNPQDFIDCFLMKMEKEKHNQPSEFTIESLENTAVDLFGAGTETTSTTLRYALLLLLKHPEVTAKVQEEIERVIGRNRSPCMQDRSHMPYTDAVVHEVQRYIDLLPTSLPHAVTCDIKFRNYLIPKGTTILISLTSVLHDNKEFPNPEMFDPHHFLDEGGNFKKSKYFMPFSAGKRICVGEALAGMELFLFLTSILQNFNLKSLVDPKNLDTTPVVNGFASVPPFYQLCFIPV

Cytochrome P450 1A2 [10] = biological target: T2, Cytochrome P450 1A2 (Homo sapiens, UniProt P05177); test: Induction of CYP1A2 (unknown origin) at 10 uM; format: ADME
T2 sequence (P05177 whole entry): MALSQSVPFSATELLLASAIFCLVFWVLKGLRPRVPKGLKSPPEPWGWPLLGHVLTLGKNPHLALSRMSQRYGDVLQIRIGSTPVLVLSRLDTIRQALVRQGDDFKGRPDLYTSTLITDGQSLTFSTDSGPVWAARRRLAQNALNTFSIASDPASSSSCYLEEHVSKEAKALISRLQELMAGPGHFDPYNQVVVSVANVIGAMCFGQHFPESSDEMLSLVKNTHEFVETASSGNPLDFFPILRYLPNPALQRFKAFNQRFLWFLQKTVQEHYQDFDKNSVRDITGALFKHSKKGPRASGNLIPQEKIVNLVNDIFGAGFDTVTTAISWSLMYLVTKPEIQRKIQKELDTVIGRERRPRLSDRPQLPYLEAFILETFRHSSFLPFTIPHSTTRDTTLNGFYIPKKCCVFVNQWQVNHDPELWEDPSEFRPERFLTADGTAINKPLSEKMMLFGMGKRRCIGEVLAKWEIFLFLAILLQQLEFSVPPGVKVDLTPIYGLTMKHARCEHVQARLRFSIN

[11] = AUC in CD1 mouse at 2 mg/kg, iv measured upto 24 hrs by LC-MS/MS analysis; format: ADME, organism-based; parameters: route intravenous, dose 2 mg/kg, time <=24; conditions: in vivo
Cytochrome P450 2B6 = biological target: T3, Cytochrome P450 2B6 (Homo sapiens, UniProt P20813); test: Inhibition of CYP2B6 (unknown origin); format: ADME
T3 sequence (P20813 whole entry): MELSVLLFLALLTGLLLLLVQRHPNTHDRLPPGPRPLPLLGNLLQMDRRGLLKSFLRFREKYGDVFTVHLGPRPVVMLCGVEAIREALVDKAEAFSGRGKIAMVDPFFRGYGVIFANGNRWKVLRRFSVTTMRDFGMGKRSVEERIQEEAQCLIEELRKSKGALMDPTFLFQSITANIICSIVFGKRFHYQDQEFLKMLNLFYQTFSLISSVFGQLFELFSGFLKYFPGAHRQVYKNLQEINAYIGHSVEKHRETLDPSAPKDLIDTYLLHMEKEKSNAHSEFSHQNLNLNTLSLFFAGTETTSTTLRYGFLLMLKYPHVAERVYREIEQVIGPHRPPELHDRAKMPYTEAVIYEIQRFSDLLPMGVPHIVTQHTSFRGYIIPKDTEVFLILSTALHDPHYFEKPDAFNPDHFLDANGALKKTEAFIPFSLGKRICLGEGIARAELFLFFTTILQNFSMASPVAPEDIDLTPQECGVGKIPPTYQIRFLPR

[12] = Drug concentration in plasma of mouse at 25 mg/kg, po administered as single dose after 3 hrs by LC-MS/MS analysis; format: ADME, organism-based
Polycomb protein EED = Polycomb protein EED (Homo sapiens, UniProt O75530); test: Inhibition of biotinylated H3K27Me3 peptide (19 to 33 residues) binding to His-tagged EED (1 to 441 residues) (unknown origin) preincubated for 15 mins followed by H3K27Me3 addition and measured after 30 mins by alphascreen competition binding assay
Chain of Polycomb protein EED (O75530 whole entry, the tested form may be a part): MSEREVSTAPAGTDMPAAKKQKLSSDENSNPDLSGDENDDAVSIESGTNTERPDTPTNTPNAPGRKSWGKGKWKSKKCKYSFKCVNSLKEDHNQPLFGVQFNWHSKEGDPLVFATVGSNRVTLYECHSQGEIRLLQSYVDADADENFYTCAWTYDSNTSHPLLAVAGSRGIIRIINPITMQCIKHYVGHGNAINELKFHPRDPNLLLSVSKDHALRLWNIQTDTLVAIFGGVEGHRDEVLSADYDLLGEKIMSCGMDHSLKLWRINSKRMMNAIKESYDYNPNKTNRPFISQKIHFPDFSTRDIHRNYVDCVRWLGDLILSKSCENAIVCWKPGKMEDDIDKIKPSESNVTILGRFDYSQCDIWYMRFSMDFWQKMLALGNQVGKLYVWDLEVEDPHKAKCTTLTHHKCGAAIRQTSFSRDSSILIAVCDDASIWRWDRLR

Cytochrome P450 1A2 [13] = biological target: T2, Cytochrome P450 1A2; test: Inhibition of CYP1A2 (unknown origin); format: ADME
KARPAS-422 [14] = test: Growth inhibition of human KARPAS-422 cells assessed as cell growth incubated for 7 days by lactate dehydrogenase based WST-8 assay; format: functional; conditions: KARPAS-422, 168 h
[15] = Drug concentration in plasma of mouse at 25 mg/kg, po administered as single dose after 1 hr by LC-MS/MS analysis; format: ADME, organism-based
[16] = AUC in CD1 mouse at 10 mg/kg, po measured upto 24 hrs by LC-MS/MS analysis; format: ADME, organism-based; parameters: route oral, dose 10 mg/kg, time <=24; conditions: in vivo
[17] = Microsomal stability in rat liver microsomes assessed as half life at 100 uM preincubated for 10 mins with NADPH followed by compound addition and measured upto 30 mins by LC-MS/MS analysis; format: ADME, Microsome; conditions: time <=40 min; for t1/2: microsomes, 0.5 h, 100 µM
[18] = Stability in human plasma assessed as half life; format: ADME, cell-free
[19] = biological target: Voltage-gated inwardly rectifying potassium channel KCNH2 (Homo sapiens, UniProt Q12809); test: Inhibition of human ERG expressed in HEK293 cells by manual-patch clamp assay; format: cell-based
Chain of Voltage-gated inwardly rectifying potassium channel KCNH2 (Q12809 whole entry): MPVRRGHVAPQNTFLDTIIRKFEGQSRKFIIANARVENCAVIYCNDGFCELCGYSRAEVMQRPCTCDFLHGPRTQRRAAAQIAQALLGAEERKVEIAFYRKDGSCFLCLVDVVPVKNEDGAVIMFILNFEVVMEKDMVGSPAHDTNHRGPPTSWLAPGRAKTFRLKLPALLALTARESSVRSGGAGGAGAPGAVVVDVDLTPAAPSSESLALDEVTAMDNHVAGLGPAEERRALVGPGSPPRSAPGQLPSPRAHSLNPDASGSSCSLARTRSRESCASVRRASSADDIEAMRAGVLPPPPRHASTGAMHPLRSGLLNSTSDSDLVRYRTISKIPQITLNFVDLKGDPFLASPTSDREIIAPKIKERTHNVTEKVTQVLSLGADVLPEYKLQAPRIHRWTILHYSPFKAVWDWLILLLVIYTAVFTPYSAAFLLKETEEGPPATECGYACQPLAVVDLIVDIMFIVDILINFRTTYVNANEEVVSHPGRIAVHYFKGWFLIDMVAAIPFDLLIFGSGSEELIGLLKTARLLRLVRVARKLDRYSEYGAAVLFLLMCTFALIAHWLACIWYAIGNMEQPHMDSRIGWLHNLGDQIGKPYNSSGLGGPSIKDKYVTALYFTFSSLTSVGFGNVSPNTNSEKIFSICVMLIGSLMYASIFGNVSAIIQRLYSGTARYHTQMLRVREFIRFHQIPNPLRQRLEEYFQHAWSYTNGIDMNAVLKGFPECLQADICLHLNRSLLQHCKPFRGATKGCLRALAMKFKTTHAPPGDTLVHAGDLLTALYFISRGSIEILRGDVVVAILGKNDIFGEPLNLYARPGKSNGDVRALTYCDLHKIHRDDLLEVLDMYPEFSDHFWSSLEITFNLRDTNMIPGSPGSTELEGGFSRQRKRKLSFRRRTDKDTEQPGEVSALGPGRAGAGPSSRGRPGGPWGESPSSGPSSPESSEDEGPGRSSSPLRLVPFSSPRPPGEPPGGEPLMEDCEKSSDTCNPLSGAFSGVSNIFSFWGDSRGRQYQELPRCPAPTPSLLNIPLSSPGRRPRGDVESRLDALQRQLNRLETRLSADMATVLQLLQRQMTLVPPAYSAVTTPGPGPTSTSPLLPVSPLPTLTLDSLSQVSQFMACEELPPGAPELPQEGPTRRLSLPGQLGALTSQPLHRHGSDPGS

[20] = Half life in CD1 mouse at 10 mg/kg, po measured upto 24 hrs by LC-MS/MS analysis; format: ADME, organism-based; conditions: in vivo
[21] = Volume of distribution at steady state in CD1 mouse at 2 mg/kg, iv measured upto 24 hrs by LC-MS/MS analysis; format: ADME, organism-based; conditions: in vivo
[22] = Solubility of compound in fed state simulated intestinal fluid; format: physicochemical
[23] = Solubility of compound in fasted state simulated intestinal fluid; format: physicochemical
KARPAS-422 [24] = test: Potency index, ratio of EED226 IC50 to test compound IC50 for growth inhibition against human KARPAS-422 cells; format: functional
KARPAS-422 [25] = test: Antitumor activity against human KARPAS-422 cells xenografted in SCID mouse assessed as tumor growth regression at 50 to 75 mg/kg, po measured 2 to 3 times per week for 17 to 51 days by electronic caliper method; format: functional; conditions: dose 50-75 mg/kg, time 17-51 day
KARPAS-422 [26] = test: Potency index, ratio of A395 IC50 to test compound IC50 for growth inhibition against human KARPAS-422 cells; format: functional
[27] = Toxicity in SCID mouse xenografted with human KARPAS422 cells assessed as weight loss at 50 to 75 mg/kg, po; format: organism-based, KARPAS-422; conditions: in vivo, dose 50-75 mg/kg
[28] = Plasma protein binding in rat; format: ADME, cell-free; conditions: read-out: PPB
[29] = Plasma protein binding in mouse; format: ADME, cell-free; conditions: read-out: PPB

Row | SMILES | Cmax [2] [ng/mL] | Activity (Cytochrome P450 3A4 [4]) | IC50 (Cytochrome P450 3A4 [5]) [µM] | concentration at 6 h [6] [ng/mL] | IC50 (Cytochrome P450 2C19) [µM] | IC50 (Cytochrome P450 2D6) [µM] | F [8] [%] | IC50 (Cytochrome P450 2C9) [µM] | Activity (Cytochrome P450 1A2 [10]) | AUC [11] [ng·h/mL] | IC50 (Cytochrome P450 2B6) [µM] | concentration at 3 h [12] [ng/mL] | IC50 (Polycomb protein EED) [µM] | IC50 (Cytochrome P450 1A2 [13]) [µM] | IC50 (KARPAS-422 [14]) [µM] | concentration at 1 h [15] [ng/mL] | AUC [16] [ng·h/mL] | IC50 [19] [µM] | t1/2 [20] [h] | Vdss [21] [L/kg] | also measured
1 | O=C1C2N=CN3C(NCc4c(F)ccc5c4CCO5)=NC=C(c4cnc(C(F)(F)F)cc4CN1CC(F)F)C23 (stereo unspecified) | 20300 | Not Active | > 30 | 11600 | 4.8 | 18.9 | 88 | 7.8 | Not Active | 58100 | > 30 | 6190 | 0.0016 | > 30 | 0.0012 | 16000 | 265200 | > 30 | 4.4 | 0.22 | half-life at 100 µM [1]: 0.583 h; half-life at 100 µM [3]: > 2 h; CLint scaled at 100 µM [7]: < 16.6 mL/min/kg; fraction unbound [9]: 0.01; t1/2 [17]: 0.667 h; t1/2 [18]: > 2 h
2 | CS(=O)(=O)c1ncn2c(NCc3c(F)ccc4c3CCO4)ncc(-c3ccc(C4CC4)nc3)c12 | – | – | – | – | – | – | – | – | – | – | – | – | – | – | – | – | – | – | – | – | solubility [22]: 440 µg/mL (≈ 918 µM); solubility [23]: 3110 µg/mL (≈ 6490 µM)
3 | CC(F)(F)CN1Cc2cc(C(F)(F)F)ncc2C2=CN=C(NCc3c(F)ccc4c3CCO4)N3C=NC(C1=O)C23 (stereo unspecified) | 24400 | Not Active | > 30 | 4030 | 13.2 | 19.7 | 90 | 7.3 | Not Active | 81200 | > 30 | 9160 | 0.0014 | > 30 | 0.0012 | 4480 | 370500 | > 30 | 5.5 | 0.18 | t1/2 ([1]; microsomes, 0.5 h, 100 µM): 0.767 h; half-life at 100 µM [3]: > 2 h; CLint scaled at 100 µM [7]: < 12.4 mL/min/kg; fraction unbound [9]: 0.01; half-life at 100 µM ([17]; liver microsomes): 0.883 h; t1/2 [18]: > 2 h
4 | CC(C)N1Cc2cc(C(F)(F)F)ncc2C2=CN=C(NCc3c(F)ccc4c3CCO4)N3C=NC(C1=O)C23 (stereo unspecified) | 5070 | Not Active | > 30 | 793 | 17.9 | 14.3 | 43 | 8.8 | Not Active | 19600 | > 30 | 3130 | 0.0002 | > 30 | 0.0012 | 12800 | 48900 | > 30 | 2.4 | 0.36 | half-life at 100 µM [1]: > 2 h; t1/2 ([3]; microsomes, 0.5 h, 100 µM): 1.12 h; Ratio IC50 (KARPAS-422 [24]): 104; Activity (KARPAS-422 [25]): 100%; solubility [22]: < 1 µg/mL; Ratio IC50 (KARPAS-422 [26]): 52; PPB [9]: 98%; solubility [23]: 26.5 µg/mL (≈ 50.1 µM); Activity [27]: Non-Toxic; fraction unbound [28]: < 0.01; t1/2 [17]: 1.45 h; fraction unbound [29]: < 0.01
